Here are results for 5 molecules from ChEMBL document CHEMBL1155071, “Discovery of novel 1,2,3,4-tetrahydroisoquinolines and 3,4-dihydroisoquinoline-1(2H)-ones as potent and selective inhibitors of KDR: synthesis, SAR, and pharmacokinetic properties” (Bioorg Med Chem Lett, 2008).

≈ marks a conversion by molar mass, not a printed value. A value given as a limit tells only on which side of the number the result lay.

By IC50 is commonly meant the point on the concentration scale where inhibition reaches its midpoint. High values mean a need for much substance, low ones inhibition by little substance. As a reminder, the solubility is the concentration that dissolves in the medium under given conditions. High values mean a readily soluble substance, low ones a poorly soluble substance.

Chain of Vascular endothelial growth factor receptor 2 (P35968 whole entry): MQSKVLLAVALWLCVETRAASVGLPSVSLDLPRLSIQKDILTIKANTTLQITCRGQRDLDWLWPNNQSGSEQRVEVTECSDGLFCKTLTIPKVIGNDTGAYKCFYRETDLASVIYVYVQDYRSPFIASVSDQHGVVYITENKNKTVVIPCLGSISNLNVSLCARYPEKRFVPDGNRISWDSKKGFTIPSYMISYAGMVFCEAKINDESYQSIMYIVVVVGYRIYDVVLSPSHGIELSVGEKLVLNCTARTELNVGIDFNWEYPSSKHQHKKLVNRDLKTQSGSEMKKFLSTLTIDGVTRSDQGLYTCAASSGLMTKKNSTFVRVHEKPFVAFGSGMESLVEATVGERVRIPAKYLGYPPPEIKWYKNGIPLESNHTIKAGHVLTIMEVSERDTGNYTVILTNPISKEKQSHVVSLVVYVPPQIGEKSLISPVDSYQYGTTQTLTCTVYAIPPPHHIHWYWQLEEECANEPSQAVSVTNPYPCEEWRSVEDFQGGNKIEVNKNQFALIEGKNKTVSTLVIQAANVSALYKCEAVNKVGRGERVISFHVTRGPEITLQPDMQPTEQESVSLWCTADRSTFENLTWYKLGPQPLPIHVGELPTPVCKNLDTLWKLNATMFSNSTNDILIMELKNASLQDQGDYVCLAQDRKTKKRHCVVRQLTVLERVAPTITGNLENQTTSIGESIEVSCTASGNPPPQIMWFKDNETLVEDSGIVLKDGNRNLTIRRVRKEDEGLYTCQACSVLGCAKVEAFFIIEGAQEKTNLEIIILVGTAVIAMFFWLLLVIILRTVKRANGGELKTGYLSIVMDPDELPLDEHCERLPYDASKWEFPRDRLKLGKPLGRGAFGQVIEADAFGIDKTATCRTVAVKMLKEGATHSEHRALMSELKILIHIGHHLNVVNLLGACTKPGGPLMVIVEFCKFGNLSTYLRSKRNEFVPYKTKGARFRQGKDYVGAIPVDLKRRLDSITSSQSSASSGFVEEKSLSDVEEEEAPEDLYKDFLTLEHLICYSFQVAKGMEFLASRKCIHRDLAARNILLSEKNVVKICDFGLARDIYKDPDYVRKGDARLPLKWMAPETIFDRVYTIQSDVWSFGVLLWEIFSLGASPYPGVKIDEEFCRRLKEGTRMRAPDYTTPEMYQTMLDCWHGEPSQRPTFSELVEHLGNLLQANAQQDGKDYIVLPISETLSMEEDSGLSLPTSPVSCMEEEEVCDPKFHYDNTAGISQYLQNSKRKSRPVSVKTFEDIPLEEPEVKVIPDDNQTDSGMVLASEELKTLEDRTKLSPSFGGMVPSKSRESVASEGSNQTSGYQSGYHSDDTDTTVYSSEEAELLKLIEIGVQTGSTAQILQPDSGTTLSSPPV

The first data set relates to HUVEC. Description: Antiproliferative activity against FGF-induced HUVEC. The class given is functional, cell-based. As to conditions: Homo sapiens.
With `COc1cc2nccc(Oc3ccc4c(C(=O)Nc5ccc(Cl)cc5)cccc4c3)c2cc1OC`, the IC50 is > 1140 nM.

Consider `COc1cc2nccc(CN3CCc4c(C(=O)Nc5ccc(Cl)c(C(F)(F)F)c5)cccc4C3=O)c2cc1OC`, for which the half-maximal inhibitory concentration (IC50) was > 1140 nM.

Take `COc1cc2nccc(CN3CCc4c(cccc4C(=O)Nc4ccc(C(C)(C)C)cc4)C3)c2cc1OC`: the IC50 was > 1140 nM.

The next data set concerns the target Vascular endothelial growth factor receptor 2 (Homo sapiens, UniProt P35968). Description: Inhibition of KDR.
Details: not given
Consider `COCCNC(=O)c1cccc2c1CCN(Cc1ccnc3cc(OC)c(OC)cc13)C2`, for which it took 3000 nM to reach half-maximal inhibition (IC50).

Regarding `COc1cc2nccc(CN3CCc4c(cccc4C(=O)Nc4ccc(Cl)cc4)C3)c2cc1OC`, half-maximal inhibition (IC50) was put at 165 nM.

`COc1cc2nccc(CN3CCc4c(C(=O)Nc5ccc(Cl)c(C(F)(F)F)c5)cccc4C3=O)c2cc1OC` gave an IC50 of 3 nM.

Molecule `COc1cc2nccc(CN3CCc4c(cccc4C(=O)Nc4ccc(C(C)(C)C)cc4)C3)c2cc1OC` gave an IC50 of 1 nM.

The subject of a further data set is HUVEC. The experiment in a line: Antiproliferative activity against VEGF-induced HUVEC. The class given is functional, cell-based. As to conditions: Homo sapiens.
As to `COc1cc2nccc(CN3CCc4c(C(=O)Nc5ccc(Cl)c(C(F)(F)F)c5)cccc4C3=O)c2cc1OC`, 22 nM corresponded to half-maximal inhibition (IC50).

`COc1cc2nccc(CN3CCc4c(cccc4C(=O)Nc4ccc(C(C)(C)C)cc4)C3)c2cc1OC` had an IC50 of 6 nM.

System in the next data set: not listed separately
Description: Aqueous solubility in simulated intestinal fluid at pH 6.8. In kind it is physicochemical.
Details: not given
Take `COCCNC(=O)c1cccc2c1CCN(Cc1ccnc3cc(OC)c(OC)cc13)C2`: the solubility was > 200 µg/mL.

As for `COc1cc2nccc(CN3CCc4c(cccc4C(=O)Nc4ccc(Cl)cc4)C3)c2cc1OC`, the solubility is 12 µg/mL (≈ 24.6 µM).

Regarding `COc1cc2nccc(CN3CCc4c(C(=O)Nc5ccc(Cl)c(C(F)(F)F)c5)cccc4C3=O)c2cc1OC`, the solubility was 24 µg/mL (≈ 42.1 µM).

`COc1cc2nccc(CN3CCc4c(cccc4C(=O)Nc4ccc(C(C)(C)C)cc4)C3)c2cc1OC` returned a solubility of 34 µg/mL (≈ 66.7 µM).
